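Assay format: 96-well plates, 48-hour exposure. GI50 = concentration required for 50% inhibition of growth. TGI: concentration producing complete growth inhibition.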
Columns and labels:
Test in all cases: NCI tumour cell line growth inhibition, 48 h
[1] = system: KM12 colon
[2] = system: SNB-19 CNS
[3] = system: OVCAR-8 ovarian
[4] = system: HL-60(TB) leukemia
[5] = system: NCI-H522 lung
[6] = system: LOX IMVI melanoma
[7] = system: SK-MEL-5 melanoma
[8] = system: ACHN renal
[9] = system: A549 NSCLC
[10] = system: HCC-2998 colon
[11] = system: NCI-H226 lung
[12] = system: MCF7 breast
[13] = system: RPMI-8226 leukemia
[14] = system: NCI-H23 lung
[15] = system: SK-MEL-2 melanoma
[16] = system: DU-145 prostate
[17] = system: OVCAR-4 ovarian
[18] = system: NCI-H460 lung
[19] = system: NCI/ADR-RES ovarian
[20] = system: IGROV1 ovarian
[21] = system: COLO 205 colon
[22] = system: K-562 leukemia
[23] = system: MOLT-4 leukemia
[24] = system: MDA-MB-435
[25] = system: UO-31 renal
[26] = system: MALME-3M melanoma
[27] = system: SW-620 colon
[28] = system: HT29 colon
[29] = system: U251 CNS
[30] = system: SF-539 CNS
[31] = system: SK-OV-3 ovarian
[32] = system: A498 renal
[33] = system: M14 melanoma
[34] = system: TK-10 renal
[35] = system: SK-MEL-28 melanoma
[36] = system: BT-549 breast
[37] = system: UACC-257 melanoma
[38] = system: SR leukemia
[39] = system: EKVX NSCLC
[40] = system: CAKI-1 renal
[41] = system: HCT-15 colon
[42] = system: 786-0 renal
[43] = system: OVCAR-5 ovarian
[44] = system: PC-3 prostate
[45] = system: UACC-62 melanoma
[46] = system: SNB-75 CNS
[47] = system: HS 578T breast
[48] = system: HCT-116 colon
[49] = system: OVCAR-3 ovarian
[50] = system: MDA-MB-231 breast
[51] = system: RXF 393 renal
[52] = system: SN12C renal
[53] = system: HOP-62 NSCLC
[54] = system: SF-268 CNS
[55] = system: SF-295 CNS

CCCCCCCCSC1=CC(=O)C(OC)=C(OC)C1=O
GI50 [1]: 3.43 µM
TGI [1]: 13.7 µM
GI50 [2]: 13.7 µM
TGI [2]: 27.3 µM
GI50 [3]: 2.16 µM
TGI [3]: 5.16 µM
GI50 [4]: 0.437 µM
TGI [4]: 21.4 µM
GI50 [5]: 0.326 µM
TGI [5]: 1.49 µM
GI50 [6]: 0.767 µM
TGI [6]: 2.11 µM
GI50 [7]: 1.6 µM
TGI [7]: 8.79 µM
GI50 [8]: 1.58 µM
TGI [8]: 2.98 µM
GI50 [9]: 5.49 µM
TGI [9]: 18.5 µM
GI50 [10]: 11.3 µM
TGI [10]: 24.4 µM
GI50 [11]: 5.4 µM
TGI [11]: 27.5 µM
GI50 [12]: 1.91 µM
TGI [12]: 14.1 µM
GI50 [13]: 1.27 µM
TGI [13]: > 100 µM
GI50 [14]: 3.36 µM
TGI [14]: 16.2 µM
GI50 [15]: 4.3 µM
TGI [15]: 13.7 µM
GI50 [16]: 7.23 µM
TGI [16]: 20.5 µM
GI50 [17]: 1.27 µM
TGI [17]: 3.14 µM
GI50 [18]: 6.29 µM
TGI [18]: 19.8 µM
GI50 [19]: 2.49 µM
TGI [19]: 7.1 µM
GI50 [20]: 5.66 µM
TGI [20]: 23.4 µM
GI50 [21]: 4.17 µM
TGI [21]: 14.6 µM
GI50 [22]: 2.73 µM
TGI [22]: > 100 µM
GI50 [23]: 1.87 µM
TGI [23]: > 100 µM
GI50 [24]: 1.88 µM
TGI [24]: 7.57 µM
GI50 [25]: 1.77 µM
TGI [25]: 3.31 µM
GI50 [26]: 1.96 µM
TGI [26]: 4.44 µM
GI50 [27]: 1.71 µM
TGI [27]: 3.37 µM
GI50 [28]: 3.75 µM
TGI [28]: 12.6 µM
GI50 [29]: 2.8 µM
TGI [29]: 11.7 µM
GI50 [30]: 2.54 µM
TGI [30]: 5.9 µM
GI50 [31]: 17.6 µM
TGI [31]: 36.4 µM
GI50 [32]: 6.13 µM
TGI [32]: 20.4 µM
GI50 [33]: 2.06 µM
TGI [33]: 9.86 µM
GI50 [34]: 2.06 µM
TGI [34]: 3.95 µM
GI50 [35]: 6.7 µM
TGI [35]: 20.3 µM
GI50 [36]: 7 µM
TGI [36]: 19.4 µM
GI50 [37]: 1.67 µM
TGI [37]: 4.17 µM
GI50 [38]: 2.27 µM
TGI [38]: > 100 µM
GI50 [39]: 10.1 µM
TGI [39]: 24.8 µM
GI50 [40]: 6.11 µM
TGI [40]: 54.6 µM
GI50 [41]: 2.27 µM
TGI [41]: 8.58 µM
GI50 [42]: 7.86 µM
TGI [42]: 20.1 µM
GI50 [43]: 4.25 µM
TGI [43]: 16.7 µM
GI50 [44]: 6.24 µM
TGI [44]: 23.3 µM
GI50 [45]: 3.5 µM
TGI [45]: 13.9 µM
GI50 [46]: 2.21 µM
TGI [46]: 16.7 µM
GI50 [47]: 2.64 µM
TGI [47]: 9.85 µM
GI50 [48]: 1.19 µM
TGI [48]: 2.54 µM
GI50 [49]: 1.45 µM
TGI [49]: 2.85 µM
GI50 [50]: 3.5 µM
TGI [50]: 8.16 µM
GI50 [51]: 1.61 µM
TGI [51]: 3.46 µM
GI50 [52]: 5.21 µM
TGI [52]: 18.4 µM
GI50 [53]: 11.1 µM
TGI [53]: 24.4 µM
GI50 [54]: 3.75 µM
TGI [54]: 14.7 µM
GI50 [55]: 6.75 µM
TGI [55]: 31.4 µM

From PubChem BioAssay (NCI)
